Assays:
[1] = tested on: immature dendritic cells (imDC); test: Binding of C. albicans to immature monocyte-derived dendritic cells in the presence of blocking agents, flow cytometry; assay type: cell-based, human; details: for Inhibition of imDC/Candida binding (FIG. 5): panel of possible inhibitors, buffer TSA as control; for Inhibition of binding of Candida to imDC at ratios 1:2, 1:5 and 1:10 (FIG. 3D): imDC:C. albicans 1:2, 1:5, 1:10
Description: (§1) Immature dendritic cells (imDC) were generated from human peripheral blood monocytes as described previously (Vissers et al., 2001). Briefly, monocytes were isolated by adherence to plastic and cultured in the presence of IL-4 (500 U/mL) and GM-CSF (800 U/mL) for 6-7 days. K562 transfectants either expressing DC-SIGN or ALCAM were generated by transfection of K562 cells with 10 μg of plasmid by electroporation as described previously (Geijtenbeek et al., 2000b; Nelissen et al., 2000). Positive cells were sorted several times to obtain stable transfectants with similar expression levels of DC-SIGN.
(§2) Labeling of Candida cells was performed as follows: viable or heat killed (60 minutes at 56° C. or 30 minutes at 100° C.) yeast cells were resuspended to 2×10^8/mL in 0.1 mg/mL FITC in 0.05 M carbonate-bicarbonate buffer (pH 9.5). After incubation for 15 minutes at room temperature in the dark, FITC-labeled Candida cells were washed twice in PBS containing 1% BSA (PBA buffer) and analyzed by flow cytometry.
(§3) DC or K562 transfected cells were stained with anti-CD45-APC prior to exposure to FITC labeled live or heat inactivated Candida. DC or K562 cells expressing DC-SIGN or ALCAM (control) were or were not preincubated for 10 minutes at room temperature with mannan (300 μg/mL), mannose (100 mM), facose (100 mM), EGTA (5 mM), or a mixture of AZN-D1 and AZN-D3 (20 μg/mL), in 20 mM Tris pH 8.0, containing 150 mM NaCl, 1 mM CaCl2, 2 mM MgCl2, and 1% BSA (TSA buffer) or, when EGTA was used, in PBS. Subsequently, FITC labeled Candida were resuspended to the appropriate concentrations either in TSA or PBS and added in various cell/C. albicans ratios. After incubation, cell-Candida conjugates were analyzed by flow cytometry, and the relative difference in mean fluorescence intensity of the double labeled events compared with that of control cells was calculated. Cells were labeled with anti-CD45APC to discriminate cells binding FITC-labeled yeast particles from yeast aggregates.
In an attempt to establish the contribution of both the mannose receptor and DC-SIGN, immature DC were incubated with specific inhibitors before interacting with C. albicans. Immature monocyte derived dendritic cells (50×10^3), which were CD45APC labeled, were incubated with heat-inactivated Candida (500×10^3) in the absence or presence of AZN-D1 and AZN-D3, anti-DC-SIGN mAb (20 μg/mL each), mannose (100 mM), and EGTA (5 mM).

[2] = molecular target: T1, DC-SIGN (Homo sapiens, UniProt Q9NNX6); test: Binding of conidiae and hyphae of other Candida strains/species and Aspergillus fumigatus to K-SIGN cells; assay type: cell-based
T1 construct: expressed in transfected cells
T1 sequence (Q9NNX6 1-404): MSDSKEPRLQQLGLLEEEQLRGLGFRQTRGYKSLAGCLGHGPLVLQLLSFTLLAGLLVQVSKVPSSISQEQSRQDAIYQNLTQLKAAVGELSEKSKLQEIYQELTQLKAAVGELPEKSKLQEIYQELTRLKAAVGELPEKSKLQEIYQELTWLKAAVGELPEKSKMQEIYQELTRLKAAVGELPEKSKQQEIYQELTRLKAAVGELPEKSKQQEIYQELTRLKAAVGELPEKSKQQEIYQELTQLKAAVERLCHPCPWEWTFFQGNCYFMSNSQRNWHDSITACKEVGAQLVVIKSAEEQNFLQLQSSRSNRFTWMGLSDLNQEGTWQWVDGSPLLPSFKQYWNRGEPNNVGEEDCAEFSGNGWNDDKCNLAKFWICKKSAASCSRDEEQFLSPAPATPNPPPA
Description: as §3
Further studies were performed as above but using other strains or species of yeast and also comparing binding of the conidiae versus binding of the hyphal form of the organism. […] These are clinical strains isolated from patients. It is seen that the conidiae or single-celled form of the yeast bind to DC-SIGN better than do the hyphae. […]

[3] = molecular target: T1, DC-SIGN; test: Binding of FITC-labeled C. albicans to K562 transfectants expressing DC-SIGN (K-SIGN), flow cytometry; assay type: cell-based; details: for Inhibition of binding of C. albicans to K562 cells transfected with wild-type DC-SIGN (FIG. 1F): K562 wild-type DC-SIGN transfectants
Description: as §1, §2, §3
The erythroleukemic cell line K562 transfectants stably expressing DC-SIGN (K-SIGN) (Geijtenbeek et al., 2000a) were used to investigate the potential of C. albicans to bind DC-SIGN in the absence of any other known C. albicans, receptors. Binding to ICAM-3 fluorescent beads was used as a positive control for DC-SIGN function. […] The monoclonal antibodies AZN-D1 and AZN-L50 were used to detect DC-SIGN and ALCAM, respectively. The K562 transfectants stably express DC-SIGN and ALCAM, (FIGS. 1A-1 through 1A-3) with expression levels similar to that observed previously (Geijtenbeek et al., 2000a; Nelissen et al., 2000).
Transfectant cells were labeled with CD45APC to discriminate cells binding FITC labeled yeast from yeast aggregates. […]

[4] = tested on: immature DC; test: Phagocytosis of FITC-labeled Candida by immature DC, confocal microscopy; assay type: cell-based, human; details: 60 minutes at 37° C.
Description: Immature DC (5×10^5) were incubated with unopsonized live FITC-labeled Candida cells (2.5×10^6) in a total volume of 500 μL at 37° C. in a water bath with orbital shaking at 150 rpm for various periods of time. At the end of the incubation period, the DC binding Candida are separated from unbound Candida by a Ficoll gradient.
The samples were then adhered on poly-L-lysine coated glass coverslips, fixed in 1% paraformaldehyde in PBS for 15 minutes at room temperature, and permeabilized in cold methanol for 5 minutes on ice. After a blocking step in PBS/3% BSA for 60 minutes at room temperature, cells were labeled with mAb (10 μg/mL in PBS/3% BSA) for 60 minutes at room temperature and subsequently incubated with Cy5-conjugated Goat-anti-Mouse F(ab′)2 fragments for 30 minutes at room temperature. Finally, the anti-bleach reagent Mowiol was added, and samples were analyzed using a MRC1024 confocal microscope (Bio-Rad).
It was recently shown that DC-SIGN is an antigen uptake receptor, facilitating phagocytosis within minutes (Engering et al., 2002). In order to determine whether DC-SIGN contributes also to the internalization of C. albicans by immature DC, experiments were performed allowing DC to interact with FITC-labeled Candida for 60 minutes at 37° C. to allow phagocytosis. […]

[5] = molecular target: T2, Activated Leukocyte Cell Adhesion Molecule ALCAM (UniProt Q13740 28-583, limits assumed); test: fluorescent beads adhesion assay, flow cytometry, K562 transfectants
T2 construct: whole, on cells; also called K-ALCAM (K562 cells transfected with ALCAM)
T2 sequence (looked up): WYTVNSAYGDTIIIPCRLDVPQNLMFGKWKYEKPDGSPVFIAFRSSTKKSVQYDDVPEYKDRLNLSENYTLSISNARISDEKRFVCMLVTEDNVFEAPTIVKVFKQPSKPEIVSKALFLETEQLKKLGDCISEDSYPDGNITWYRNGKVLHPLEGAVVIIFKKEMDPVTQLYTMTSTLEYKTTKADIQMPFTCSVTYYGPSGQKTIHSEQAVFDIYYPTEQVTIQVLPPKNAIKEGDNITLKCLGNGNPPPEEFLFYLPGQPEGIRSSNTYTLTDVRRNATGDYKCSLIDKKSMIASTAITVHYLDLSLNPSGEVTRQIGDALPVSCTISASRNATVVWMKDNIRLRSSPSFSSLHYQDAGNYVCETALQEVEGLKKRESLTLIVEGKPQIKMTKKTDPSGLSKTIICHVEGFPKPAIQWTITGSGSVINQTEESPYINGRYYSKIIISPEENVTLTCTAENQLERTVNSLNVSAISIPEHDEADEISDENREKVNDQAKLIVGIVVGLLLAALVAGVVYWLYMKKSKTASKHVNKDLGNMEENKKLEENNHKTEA
Description: In inhibition studies, the bead adhesion assay was performed in the presence of 0.3 mg/mL mannan, 5 mM EGTA, or 20 μg/mL antibodies against DC-SIGN or ALCAM.
The erythroleukemic cell line K562 transfectants stably expressing DC-SIGN (K-SIGN) (Geijtenbeek et al., 2000a) were used to investigate the potential of *C. albicans* to bind DC-SIGN in the absence of any other known *C. albicans*, receptors.

Question: β-1,2-oligomannoside was tested. Which “Inhibition of imDC/Candida binding (FIG. 5)” value [1] did it give?
Answer: greatly inhibited binding

Question: Which “Inhibition of binding of various Candida species and Aspergillus fumigatus to K-SIGN cells (FIGS. 8A-F)” value ([2]; conidiae and hyphae, all cases except possibly C. tropicalis and C. parapsilosis (very low binding)) does the source give for `O=C(O)CN(CCN(CC(=O)O)CC(=O)O)CC(=O)O` [EDTA] here?
Answer: inhibited

Question: How did the “Inhibition of binding of C. albicans to K562 cells transfected with wild-type DC-SIGN (FIG. 1F)” value [3] turn out when `C[C@H](O)[C@@H](O)[C@@H](O)[C@H](O)C=O` [fucose, L-fucose] was run?
Answer: some inhibition

Question: And the “Inhibition of binding of Candida to imDC at ratios 1:2, 1:5 and 1:10 (FIG. 3D)” value [1]?
Answer: greater inhibitory effects

Question: And the “Inhibition of imDC/Candida binding (FIG. 5)” value [1]?
Answer: inhibited binding to a large degree

Question: With laminarin as the molecule, how does the “Blocking of C. albicans binding on immature monocyte derived DC (β2-integrin / Dectin-1 interference)” value [1] read?
Answer: did not show any block

Question: What about the “Inhibition of imDC/Candida binding (FIG. 5)” value [1] of the same molecule?
Answer: only minor effects

Question: `O=C(O)CN(CCOCCOCCN(CC(=O)O)CC(=O)O)CC(=O)O` [EGTA] was tested. Which “Inhibition of binding of C. albicans by K-SIGN (FIG. 1C)” value ([3]; AZN-D1 20 μg/mL, EGTA 5 mM) did it give?
Answer: abrogates binding

Question: What about the “Inhibition of binding of C. albicans to K562 cells transfected with wild-type DC-SIGN (FIG. 1F)” value [3] of the same molecule?
Answer: prevented the binding

Question: And the “Inhibition of binding of live and heat-killed (56° C. or 100° C.) yeast forms of C. albicans by DC-SIGN (FIG. 2)” value ([3]; K-SIGN, live and heat-inactivated yeast)?
Answer: inhibited

Question: What about the “Blocking of phagocytosis of Candida by immature DC” value [4] of the same molecule?
Answer: almost completely blocked phagocytosis

Question: What about the “Inhibition of binding of conidiae and hyphae to K-SIGN cells (FIG. 6)” value ([2]; C. albicans strains V13-12, V15-31, V18-17, C. dubliniensis strains V18-13, 4247, 3588) of the same molecule?
Answer: inhibited

Question: And the “Blocking of binding of C. albicans to immature DC, in words (FIG. 3B)” value ([1]; EGTA 5 mM, heat-inactivated Candida)?
Answer: most effective blocking agent

Question: And the “Inhibition of binding of Candida to imDC at ratios 1:2, 1:5 and 1:10 (FIG. 3D)” value [1]?
Answer: largely eliminated binding

Question: And the “Inhibition of imDC/Candida binding (FIG. 5)” value [1]?
Answer: inhibited binding to a large degree

Question: What does the source list for Mannan?
Answer: Inhibition of binding of Candida to imDC at ratios 1:2, 1:5 and 1:10 (FIG. 3D) [1]: did not block the binding; Inhibition of imDC/Candida binding (FIG. 5) [1]: only minor effects

B1: ICAM-3-Fc (Fc fusion, UniProt P32942 30-485, looked up)
chain: QEFLLRVEPQNPVLSAGGSLFVNCSTDCPSSEKIALETSLSKELVASGMGWAAFNLSNVTGNSRILCSVYCNGSQITGSSNITVYRLPERVELAPLPPWQPVGQNFTLRCQVEDGSPRTSLTVVLLRWEEELSRQPAVEEPAEVTATVLASRDDHGAPFSCRTELDMQPQGLGLFVNTSAPRQLRTFVLPVTPPRLVAPRFLEVETSWPVDCTLDGLFPASEAQVYLALGDQMLNATVMNHGDTLTATATATARADQEGAREIVCNVTLGGERREARENLTVFSFLGPIVNLSEPTAHEGSTVTVSCMAGARVQVTLDGVPAAAPGQPAQLQLNATESDDGRSFFCSATLEVDGEFLHRNSSVQLRVLYGPKIDRATCPQHLKWKDKTRHVLQCQARGNPYPELRCLKEGSSREVPVGIPFFVNVTHNGTYQCQASSSRGKYTLVVVMDIEAGSSH
notes: Coated on carboxylate-modified TransFluorSpheres; also called ICAM-3-Fc coated beads; ICAM-3 fluorescent beads; not shown: Fc part
Question: Does B1 bind [5]?
Answer: no binding

— patent publication US7541032B2, “Antigen uptake receptor for Candida albicans on dendritic cells” (priority 2002, dated 2009)
